The values below come from patent publication US20230089867A1, “CYCLIC PENTAMER COMPOUNDS AS PROPROTEIN CONVERTASE SUBTILISIN/KEXIN TYPE 9 (PCSK9) INHIBITORS FOR THE TREATMENT OF METABOLIC DISORDER” (Novartis AG, priority 2018, published 2023).

What is called IC50 is the concentration at which inhibition is half-maximal.

In this assay the target is human PCSK9 (Homo sapiens, UniProt Q8NBP7). The assay is described as follows: PCSK9 ligand binding TR-FRET assay (interference with binding of human PCSK9 to human LDLR). As to conditions: for Max % inhibition: PCSK9 FRET assay, efficacy (Amax), 100% = 1 uM unlabeled human PCSK9, 0% = DMSO; for IC50: TR-FRET, human PCSK9 Alexa Fluor 647 / human LDLR extracellular domain-Europium Kryptate, read-out: PCSK9 FRET Assay IC50. The method in brief:
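Threefold compound dilutions were pre-incubated 30 min with PCSK9, after which 4 nM Europium Kryptate-tagged human LDLR ectodomain was added for a further 2 h.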
On the technique in general: Time-resolved FRET reads energy transfer from a long-lived donor to a nearby acceptor.

Sequence of human PCSK9 (Q8NBP7 153-692): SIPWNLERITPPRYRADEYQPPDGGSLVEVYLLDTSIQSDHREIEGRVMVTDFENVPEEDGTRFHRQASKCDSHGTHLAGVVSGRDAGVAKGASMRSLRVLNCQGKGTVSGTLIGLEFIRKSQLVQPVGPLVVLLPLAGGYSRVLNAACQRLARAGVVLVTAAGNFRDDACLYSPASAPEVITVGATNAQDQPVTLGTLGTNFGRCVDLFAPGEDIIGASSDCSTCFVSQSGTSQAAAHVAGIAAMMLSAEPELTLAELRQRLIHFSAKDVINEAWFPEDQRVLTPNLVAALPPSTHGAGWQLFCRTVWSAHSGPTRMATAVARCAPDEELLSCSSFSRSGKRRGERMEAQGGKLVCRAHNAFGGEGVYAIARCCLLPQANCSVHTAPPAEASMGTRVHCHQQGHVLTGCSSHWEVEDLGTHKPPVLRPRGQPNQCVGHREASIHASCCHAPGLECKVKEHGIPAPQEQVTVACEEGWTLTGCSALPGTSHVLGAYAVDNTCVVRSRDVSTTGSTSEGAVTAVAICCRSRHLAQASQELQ
Sequence of human PCSK9 (Q8NBP7 31-152 partner limits assumed): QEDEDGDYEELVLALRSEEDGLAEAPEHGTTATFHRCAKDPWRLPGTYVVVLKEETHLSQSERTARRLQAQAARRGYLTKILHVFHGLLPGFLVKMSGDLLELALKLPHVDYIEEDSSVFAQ

As to `COC[C@@H]1NC(=O)[C@H](C)N(Cc2ccc(Cl)cc2Oc2ccc(-c3cnc(CN(C)C)n3C)cc2)C(=O)C[C@@H](Cc2ccccc2)C(=O)N(C)[C@@H](C(=O)O)CNC(=O)C[C@H](Cc2ccc(Cl)cc2)N(C)C1=O` [Compound 177, (2S,5S,8S,13R,16R)-16-benzyl-1-(4-chloro-2-(4-(2-((dimethylamino)methyl)-1-methyl-1H-imidazol-5-yl)phenoxy)benzyl)-8-(4-chlorobenzyl)-5-(methoxymethyl)-2,7,14-trimethyl-3,6,10,15,18-pentaoxo-1,4,7,11,14-pentaazacyclooctadecane-13-carboxylic acid], the Max % inhibition came to 107.53% and the IC50 was determined as 9.8 nM.
On to `COC[C@@H]1NC(=O)[C@H](C)N(Cc2ccc(Cl)cc2Oc2ccc(-c3cnc(CN(C)C)n3C)cc2)C(=O)C[C@@H](Cc2ccccc2)C(=O)N(C)CC(C)(C)NC(=O)C[C@H](Cc2ccc(Cl)cc2)N(C)C1=O` [Compound 65, (2S,5S,8S,16R)-16-benzyl-1-(4-chloro-2-(4-(2-((dimethylamino)methyl)-1-methyl-1H-imidazol-5-yl)phenoxy)benzyl)-8-(4-chlorobenzyl)-5-(methoxymethyl)-2,7,12,12,14-pentamethyl-1,4,7,11,14-pentaazacyclooctadecane-3,6,10,15,18-pentaone], for which the Max % inhibition is given as 92.63% and the IC50 came out at 189 nM.
On the same counts, the results for `COC[C@@H]1NC(=O)[C@H](C)N(Cc2ccc(Cl)cc2Oc2ccc(-c3cnc(CN4CCCC4)n3C)cc2)C(=O)C[C@@H](Cc2ccccc2)C(=O)N(C)[C@@H](CCCCN(C)C)CNC(=O)C[C@H](Cc2ccc(Cl)cc2)N(C)C1=O.Cl` [Compound 43, (2S,5S,8S,13S,16R)-16-benzyl-1-(4-chloro-2-(4-(1-methyl-2-(pyrrolidin-1-ylmethyl)-1H-imidazol-5-yl)phenoxy)benzyl)-8-(4-chlorobenzyl)-13-(4-(dimethylamino)butyl)-5-(methoxymethyl)-2,7,14-trimethyl-1,4,7,11,14-pentaazacyclooctadecane-3,6,10,15,18-pentaone hydrochloride] are 94.38% and 1.8 nM.
On to `COC[C@@H]1NC(=O)[C@H](CCN2CCOCC2)N(Cc2ccc(Cl)cc2Oc2ccc(-c3cnc(CN(C)C)n3C)cc2)C(=O)C[C@@H](Cc2ccccc2)C(=O)N(C)[C@H]2CCCC[C@@H]2NC(=O)C[C@H](Cc2ccc(Cl)cc2)N(C)C1=O` [Compound 101, (4S,7S,10S,14R,16aS,20aS)-14-benzyl-11-(4-chloro-2-(4-(2-((dimethylamino)-methyl)-1-methyl-1H-imidazol-5-yl)phenoxy)benzyl)-4-(4-chlorobenzyl)-7-(methoxymethyl)-5,16-dimethyl-10-(2-morpholinoethyl)hexadecahydrobenzo-[l][1,4,7,11,14]pentaazacycloocta-decine-2,6,9,12,15(3H)-pentaone], for which the Max % inhibition amounted to 94.32% and the half-inhibitory concentration (IC50) turned out to be 1.1 nM.
In the case of `COC[C@@H]1NC(=O)[C@H](CCCN2CC(F)(F)C(F)(F)C2)N(Cc2ccc(Cl)cc2Oc2ccc(-c3cnc(CN(C)C)n3C)cc2)C(=O)C[C@@H](Cc2ccccc2)C(=O)N(C)[C@H]2CCCC[C@@H]2NC(=O)C[C@H](Cc2ccc(Cl)cc2)N(C)C1=O` [Compound 254, (4S,7S,10S,14R,16aS,20aS)-14-benzyl-11-(4-chloro-2-(4-(2-((dimethylamino)methyl)-1-methyl-1H-imidazol-5-yl)phenoxy)benzyl)-4-(4-chlorobenzyl)-7-(methoxy-methyl)-5,16-dimethyl-10-(3-(3,3,4,4-tetrafluoropyrrolidin-1-yl)propyl)hexadecahydro-benzo[l][1,4,7,11,14]pentaazacyclooctadecine-2,6,9,12,15(3H)-pentaone], the Max % inhibition stood at 102.70% and the concentration for half-maximal inhibition (IC50) came to 3 nM.
As to `COC[C@@H]1NC(=O)[C@H](CC(=O)N2CCOCC2)N(Cc2ccc(Cl)cc2Oc2ccc(-c3cnc(CN(C)C)n3C)cc2)C(=O)C[C@@H](Cc2ccccc2)C(=O)N(C)[C@H]2CCCC[C@@H]2NC(=O)C[C@H](Cc2ccc(Cl)cc2)N(C)C1=O` [Compound 20, (4S,7S,10S,14R,16aS,20aS)-14-benzyl-11-(4-chloro-2-(4-(2-((dimethylamino)methyl)-1-methyl-1H-imidazol-5-yl)phenoxy)benzyl)-4-(4-chlorobenzyl)-7-(methoxymethyl)-5,16-dimethyl-10-(2-morpholino-2-oxoethyl)hexadecahydrobenzo[l][1,4,7,11,14]pentaazacyclooctadecine-2,6,9,12,15(3H)-pentaone], the Max % inhibition came out at 98.33% and the IC50 came to 1.2 nM.
For the compound `COCCN(CCOC)C(=O)C[C@H]1C(=O)N[C@@H](COC)C(=O)N(C)[C@@H](Cc2ccc(Cl)cc2)CC(=O)N[C@H]2CCCC[C@@H]2N(C)C(=O)[C@H](Cc2ccccc2)CC(=O)N1Cc1ccc(Cl)cc1Oc1ccc(-c2cnc(CN(C)C)n2C)cc1` [Compound 218, 2-((4S,7S,10S,14R,16aS,20aS)-14-benzyl-11-(4-chloro-2-(4-(2-((dimethylamino)methyl)-1-methyl-1H-imidazol-5-yl)phenoxy)benzyl)-4-(4-chlorobenzyl)-7-(methoxymethyl)-5,16-dimethyl-2,6,9,12,15-pentaoxodocosahydrobenzo[l][1,4,7,11,14]pentaazacyclooctadecin-10-yl)-N ,N-bis(2-methoxyethyl)acetamide], the Max % inhibition came to 105.97% and the half-inhibitory concentration (IC50) was determined as 1 nM.
As to `COC[C@@H]1NC(=O)[C@H](C)N(Cc2ccc(Cl)cc2Oc2ccc(-c3cnc4c(c3)CN(C(=O)[C@@H]3CCNC3)CC4)cc2)C(=O)C[C@@H](Cc2ccccc2)C(=O)N(C)[C@@H](C)CNC(=O)C[C@H](Cc2ccc(Cl)cc2)N(C)C1=O` [Compound 212, (2S,5S,8S,13S,16R)-16-benzyl-1-(4-chloro-2-(4-(6-((R)-pyrrolidine-3-carbonyl)-5,6,7,8-tetrahydro-1,6-naphthyridin-3-yl)phenoxy)benzyl)-8-(4-chlorobenzyl)-5-(methoxymethyl)-2,7,13,14-tetramethyl-1,4,7,11,14-pentaazacyclooctadecane-3,6,10,15,18-pentaone], the Max % inhibition is 71.82% and the half-maximal inhibitory concentration (IC50) was determined as 5.4 nM.
`COC[C@@H]1NC(=O)[C@H](C)N(Cc2ccc(Cl)cc2Oc2ccc(-c3cnc4n3CCN(C(=O)[C@@H]3CCOC3)C4)cc2)C(=O)C[C@@H](Cc2ccccc2)C(=O)N(C)[C@@H](C)CNC(=O)C[C@H](Cc2ccc(Cl)cc2)N(C)C1=O` [Compound 171, (2S,5S,8S,13S,16R)-16-benzyl-1-(4-chloro-2-(4-(7-((R)-tetrahydrofuran-3-carbonyl)-5,6,7,8-tetrahydroimidazo[1,2-a]pyrazin-3-yl)phenoxy)benzyl)-8-(4-chlorobenzyl)-5-(methoxymethyl)-2,7,13,14-tetramethyl-1,4,7,11,14-pentaazacyclooctadecane-3,6,10,15,18-pentaone]: the Max % inhibition amounted to 91.76% and the concentration for half-maximal inhibition (IC50) is 3.1 nM.
Consider `CC[C@H]1C(=O)N[C@@H](CO)C(=O)N(C)[C@@H](Cc2ccc(Cl)cc2)CC(=O)NC[C@H](C)N(C)C(=O)[C@H](Cc2ccccc2)CC(=O)N1Cc1ccc(Cl)cc1Oc1ccc(-c2cnc(CN(C)C)n2C)cc1` [Compound 207, (2S,5S,8S,13S,16R)-16-benzyl-1-(4-chloro-2-(4-(2-((dimethylamino)methyl)-1-methyl-1H-imidazol-5-yl)phenoxy)benzyl)-8-(4-chlorobenzyl)-2-ethyl-5-(hydroxymethyl)-7,13,14-trimethyl-1,4,7,11,14-pentaazacyclooctadecane-3,6,10,15,18-pentaone], for which the Max % inhibition is listed as 102.49% and the IC50 amounted to 2.2 nM.
For the compound `CCc1ccc(CN2C(=O)C[C@@H](Cc3ccccc3)C(=O)N(C)[C@H]3CCCC[C@@H]3NC(=O)C[C@H](Cc3ccc(Cl)cc3)N(C)C(=O)[C@H](COC)NC(=O)[C@@H]2C)c(Oc2ccc(-c3cnc(CN4CCCC4)n3C)cc2)c1` [Compound 223, (4S,7S,10S,14R,16aS,20aS)-14-benzyl-4-(4-chlorobenzyl)-11-(4-ethyl-2-(4-(1-methyl-2-(pyrrolidin-1-ylmethyl)-1H-imidazol-5-yl)phenoxy)benzyl)-7-(methoxymethyl)-5,10,16-trimethylhexadecahydrobenzo[l][1,4,7,11,14]pentaazacyclooctadecine-2,6,9,12,15(3H)-pentaone], the Max % inhibition is 100.16% and the IC50 is 1.8 nM.
Turning to `COC[C@@H]1NC(=O)[C@H](C)N(Cc2ccc(Cl)cc2Oc2ccc(-c3cnc(CN4CCCC4)n3C)cc2)C(=O)C[C@@H](Cc2ccccc2F)C(=O)N(C)[C@@H](C)CNC(=O)C[C@H](Cc2ccc(Cl)cc2)N(C)C1=O` [Compound 229, (2S,5S,8S,13S,16R)-1-(4-chloro-2-(4-(1-methyl-2-(pyrrolidin-1-ylmethyl)-1H-imidazol-5-yl)phenoxy)benzyl)-8-(4-chlorobenzyl)-16-(2-fluorobenzyl)-5-(methoxymethyl)-2,7,13,14-tetramethyl-1,4,7,11,14-pentaazacyclooctadecane-3,6,10,15,18-pentaone], the Max % inhibition came out at 99.91% and the IC50 came out at 0.6 nM.
For `COC[C@@H]1NC(=O)[C@H](C)N(Cc2ccc(Cl)cc2Oc2ccc(-n3cnc(CN4CCOCC4)c3C)cc2)C(=O)C[C@@H](Cc2ccccc2)C(=O)N(C)[C@H]2CCCC[C@@H]2NC(=O)C[C@H](Cc2ccc(Cl)cc2)N(C)C1=O` [Compound 266, (4S,7S,10S,14R,16aS,20aS)-14-benzyl-11-(4-chloro-2-(4-(5-methyl-4-(morpholinomethyl)-1H-imidazol-1-yl)phenoxy)benzyl)-4-(4-chlorobenzyl)-7-(methoxymethyl)-5,10,16-trimethylhexadecahydrobenzo[l][1,4,7,11,14]pentaazacyclooctadecine-2,6,9,12,15(3H)-pentaone], the Max % inhibition was determined as 106.30% and the 50% inhibitory concentration (IC50) is 1.9 nM.
